Values of other authors, collected in patent publication US20020094316A1, “Polypodal chelants for metallopharmaceuticals” (priority 2001, published 2002).
Blank lines part the entries; values can stand above or below the molecule they belong to.

Tests used:
[1] = compared with MECAM

half-life (in 0.1 M HCl): 60.2 h
SMILES: O=C([O-])CN1CCN(CC(=O)[O-])CCN(CC(=O)[O-])CCN(CC(=O)[O-])CC1.[Gd+3] [Gd(DOTA)^−]

stability of Fe^3+ complex relative to MECAM [1]: much more stable
SMILES: O=C(N[C@H]1COC(=O)[C@@H](NC(=O)c2cccc(O)c2O)COC(=O)[C@@H](NC(=O)c2cccc(O)c2O)COC1=O)c1cccc(O)c1O [enterobactin]

SMILES: O=C([O-])CN(CCN(CC(=O)[O-])CC(=O)[O-])CCN(CC(=O)[O-])CC(=O)[O-].[Gd+3] [Gd(DTPA)^2−]
Kobs (decomposition) (acidic conditions): 1.2×10^−3 so^−1
